Laboratory results from PMC5216056 (Nature Communications, 2017).
Values joined by “and” are separate entries in the source; they are usually repeats but may differ in a detail not shown here. Equal entries are not always repeated. Where two headings read alike, the source gives them in different places.

How the values were obtained:
[1] = molecular target: T1, mCB1R (Mus musculus, UniProt P47746); assay: biochemical; format: binding
T1 construct: from tissue; host or cells: brain of male C57BL/6J mice
T1 sequence (P47746 whole entry): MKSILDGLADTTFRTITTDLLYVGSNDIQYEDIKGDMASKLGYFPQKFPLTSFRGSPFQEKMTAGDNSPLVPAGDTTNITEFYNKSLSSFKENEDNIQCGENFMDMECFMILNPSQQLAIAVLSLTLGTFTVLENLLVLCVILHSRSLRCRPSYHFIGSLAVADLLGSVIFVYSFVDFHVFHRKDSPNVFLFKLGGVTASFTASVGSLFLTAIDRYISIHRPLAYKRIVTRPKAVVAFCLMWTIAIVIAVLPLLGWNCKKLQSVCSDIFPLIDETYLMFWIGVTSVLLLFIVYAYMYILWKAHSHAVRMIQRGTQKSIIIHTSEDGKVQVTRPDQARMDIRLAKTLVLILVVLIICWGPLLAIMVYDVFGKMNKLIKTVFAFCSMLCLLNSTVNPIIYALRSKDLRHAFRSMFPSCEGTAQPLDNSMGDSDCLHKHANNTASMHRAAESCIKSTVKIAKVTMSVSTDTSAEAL

[2] = molecular target: T2, FAAH (Homo sapiens, UniProt O00519); assay: FAAH activity, U937 cell homogenate; format: biochemical; details: for inhibition at 5 µM: read-out: FAAH % inhibition at 5 µM
T2 construct: host or cells: U937
T2 sequence (O00519 1-579): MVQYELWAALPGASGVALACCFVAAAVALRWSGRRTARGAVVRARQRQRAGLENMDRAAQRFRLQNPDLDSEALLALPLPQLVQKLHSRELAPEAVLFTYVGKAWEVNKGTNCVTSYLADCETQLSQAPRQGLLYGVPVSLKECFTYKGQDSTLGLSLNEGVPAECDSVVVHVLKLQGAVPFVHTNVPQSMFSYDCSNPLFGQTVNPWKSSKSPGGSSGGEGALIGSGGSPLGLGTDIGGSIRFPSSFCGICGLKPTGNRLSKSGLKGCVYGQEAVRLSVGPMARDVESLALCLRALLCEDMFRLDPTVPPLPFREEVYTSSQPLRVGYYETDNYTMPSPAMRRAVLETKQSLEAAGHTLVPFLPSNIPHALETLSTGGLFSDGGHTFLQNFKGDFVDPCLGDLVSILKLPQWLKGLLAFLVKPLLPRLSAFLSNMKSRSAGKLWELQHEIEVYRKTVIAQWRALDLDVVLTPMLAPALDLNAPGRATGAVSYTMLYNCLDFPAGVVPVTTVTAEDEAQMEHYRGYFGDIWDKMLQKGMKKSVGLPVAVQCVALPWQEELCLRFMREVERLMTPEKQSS
Description: FAAH activity was assessed using U937 cell homogenate (source: U937 cells were purchased from ATCC, Manassas, VA, USA). Tested compounds (at the concentrations of 1 and 5 μM) or solvent (≤1% of the final volume) were pre-incubated at 37 °C for 30 min with 100 μg of cell homogenate diluted in assay buffer (10 mM Tris-HCl and 1 mM EDTA, pH 7.6 and 1% w/v fatty acid-free BSA). Successively, a mixture of 99.5 nM […] of AEA and 0.5 nM of [ethanolamine-1-3H]-AEA (40–60 Ci mmol^−1) was added to the homogenate (final concentration of 100 nM) and incubated for 10 min at 37 °C under shaking. After the incubation time, 2 volumes of an ice-cold methanol: chloroform mixture 1:1 (v/v) were added to each sample, vigorously vortexed and centrifuged at 10,000g for 10 min at 4 °C to separate aqueous and organic phases. The aqueous phases were collected and the radioactivity associated with the hydrolysis product [3H]-ethanolamine was measured after addition of 3 ml of scintillation cocktail using the Tri-Carb 2100 TR scintillation counter. Data were collected from three independent experiments performed in triplicate and results were expressed as FAAH activity, relative to that in vehicle-treated samples (=100%).

[3] = molecular target: T3, hGPR55 (Homo sapiens, UniProt Q9Y2T6); assay: cell-based
T3 construct: host or cells: CHO-K1 (PathHunter hGPR55_bgal)
T3 sequence (Q9Y2T6 whole entry): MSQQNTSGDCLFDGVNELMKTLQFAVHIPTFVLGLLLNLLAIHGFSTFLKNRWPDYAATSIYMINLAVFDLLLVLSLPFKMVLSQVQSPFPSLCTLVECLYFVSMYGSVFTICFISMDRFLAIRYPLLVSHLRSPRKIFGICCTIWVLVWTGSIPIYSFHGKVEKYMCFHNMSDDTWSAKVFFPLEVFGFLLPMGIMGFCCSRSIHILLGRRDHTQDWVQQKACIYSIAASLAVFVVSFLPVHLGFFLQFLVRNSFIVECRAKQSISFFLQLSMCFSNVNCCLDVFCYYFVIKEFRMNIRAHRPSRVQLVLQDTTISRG

[4] = molecular target: T4, Rat recombinant TRPA1 (Rattus norvegicus, UniProt Q6RI86); assay: cell-based; format: cell-based; details: for EC50: read-out: TRPA1 Potency EC50; for IC50: vs AITC 100μM, 5 min pre-incubation, read-out: TRPA1 IC50 for antagonism or desensitization
T4 construct: expressed in transfected cells
T4 sequence (Q6RI86 whole entry): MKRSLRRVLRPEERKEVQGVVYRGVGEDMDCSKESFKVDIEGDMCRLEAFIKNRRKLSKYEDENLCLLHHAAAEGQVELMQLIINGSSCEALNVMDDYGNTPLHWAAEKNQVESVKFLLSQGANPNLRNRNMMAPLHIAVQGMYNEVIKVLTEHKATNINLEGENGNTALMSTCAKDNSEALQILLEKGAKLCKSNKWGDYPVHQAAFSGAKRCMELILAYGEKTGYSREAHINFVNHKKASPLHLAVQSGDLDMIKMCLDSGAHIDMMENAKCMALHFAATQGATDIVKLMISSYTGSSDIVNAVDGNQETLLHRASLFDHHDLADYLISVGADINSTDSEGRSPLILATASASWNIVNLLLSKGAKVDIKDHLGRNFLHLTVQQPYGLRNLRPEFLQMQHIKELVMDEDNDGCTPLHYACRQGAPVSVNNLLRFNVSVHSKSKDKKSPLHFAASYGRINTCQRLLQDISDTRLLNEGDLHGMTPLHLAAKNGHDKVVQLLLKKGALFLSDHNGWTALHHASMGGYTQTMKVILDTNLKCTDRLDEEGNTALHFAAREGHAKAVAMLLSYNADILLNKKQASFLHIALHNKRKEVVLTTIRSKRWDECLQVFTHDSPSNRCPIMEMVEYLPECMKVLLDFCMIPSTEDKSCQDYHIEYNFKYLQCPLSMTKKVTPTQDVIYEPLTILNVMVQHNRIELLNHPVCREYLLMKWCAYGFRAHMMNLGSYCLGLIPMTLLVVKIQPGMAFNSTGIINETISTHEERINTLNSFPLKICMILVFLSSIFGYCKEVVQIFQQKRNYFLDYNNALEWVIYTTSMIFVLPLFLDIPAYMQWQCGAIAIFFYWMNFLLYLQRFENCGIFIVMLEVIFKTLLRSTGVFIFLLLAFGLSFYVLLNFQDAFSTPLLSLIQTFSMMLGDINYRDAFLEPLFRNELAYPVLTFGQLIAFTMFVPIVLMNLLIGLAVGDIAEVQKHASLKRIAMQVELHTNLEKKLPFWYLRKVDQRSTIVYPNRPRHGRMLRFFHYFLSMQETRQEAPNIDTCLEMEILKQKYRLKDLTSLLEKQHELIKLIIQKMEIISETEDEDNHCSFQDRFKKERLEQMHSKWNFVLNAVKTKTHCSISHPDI

[5] = molecular target: T5, A3 (h) (Homo sapiens, UniProt P0DMS8); assay: CEREP panel; format: binding; details: for inhibition at 10 µM: read-out: % inhibition A3 (h)
T5 construct: CEREP
T5 sequence (P0DMS8 1-318): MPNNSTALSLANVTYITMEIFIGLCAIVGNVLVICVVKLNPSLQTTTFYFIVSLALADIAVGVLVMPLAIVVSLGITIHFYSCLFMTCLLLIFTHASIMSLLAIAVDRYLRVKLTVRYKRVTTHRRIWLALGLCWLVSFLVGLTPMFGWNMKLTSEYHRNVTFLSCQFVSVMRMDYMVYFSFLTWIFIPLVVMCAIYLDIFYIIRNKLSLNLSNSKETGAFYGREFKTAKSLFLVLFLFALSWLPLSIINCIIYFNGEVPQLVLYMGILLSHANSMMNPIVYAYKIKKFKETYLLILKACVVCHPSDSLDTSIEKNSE

[6] = molecular target: T6, alpha 1A (h) (Homo sapiens, UniProt P35348); assay: CEREP panel; format: binding; details: for inhibition at 10 µM: read-out: % inhibition alpha 1A (h)
T6 construct: CEREP
T6 sequence (P35348 1-466): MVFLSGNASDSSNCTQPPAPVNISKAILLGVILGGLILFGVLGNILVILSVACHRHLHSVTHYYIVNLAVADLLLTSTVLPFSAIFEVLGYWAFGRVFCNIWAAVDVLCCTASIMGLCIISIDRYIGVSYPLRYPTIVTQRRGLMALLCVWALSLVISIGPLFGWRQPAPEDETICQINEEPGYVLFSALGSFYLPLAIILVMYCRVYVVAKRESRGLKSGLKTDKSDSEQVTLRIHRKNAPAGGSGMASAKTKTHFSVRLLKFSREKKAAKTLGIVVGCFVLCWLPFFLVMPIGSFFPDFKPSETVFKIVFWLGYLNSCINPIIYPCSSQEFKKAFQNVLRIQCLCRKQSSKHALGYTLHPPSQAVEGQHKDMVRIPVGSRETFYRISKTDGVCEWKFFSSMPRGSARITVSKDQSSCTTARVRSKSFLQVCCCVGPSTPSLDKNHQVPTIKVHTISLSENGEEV

[7] = system: PCP; format: binding; details: 10 µM
[8] = β-arrestin recruitment, read-out: GPR55 pEC50 (± SEM) (converted)

Compound	TRPA1 Efficacy (%AITC 100μM) [4]	EC50 [4]	IC50 [4]	% inhibition PCP [7]	pKi ± SEM mCB1R ([1]; mouse brain membranes)	GPR55 pEC50 (± SEM) ([3]; β-arrestin recruitment)	% inhibition A3 (h) ([5]; 10 µM)	% inhibition alpha 1A (h) ([6]; 10 µM)	FAAH % inhibition at 5 µM ([2]; 5 µM, U937 cell homogenate)	further results
CCCCCCC(C)(C)c1cc(OC)c([C@@H]2C=C(CO)[C@@H]3C[C@H]2C3(C)C)c(OC)c1 [HU308]	43.1%	18.5 µM	> 100 µM	-9%	–	–	–	–	–	Ki [1]: 0.832 µM; inhibition at 5 µM [2]: < 25%; EC50 [3]: > 10 µM; Emax at 10 µM ([3]; read-out: GPR55 Emax ± SEM (%) or % effect at 10 µM): -6 ± 5%; inhibition at 10 µM [5]: -1%; inhibition at 10 µM [6]: 2%
CCCn1c(C)c(C(=O)c2cccc3ccccc23)c2ccccc21 [JWH015]	–	–	–	-19%	5.94 ± 0.15	< 5	93%	16%	–	–
Cc1c(C(=O)NN2CCCCC2)nn(-c2ccc(Cl)cc2Cl)c1-c1ccc(I)cc1 [AM251]	44.4%	–	–	–	–	–	93%	6%	< 50% and 30–40%	GPR55 pEC50 (± SEM) [3]: 5.49±0.09; GPR55 Emax ± SEM (%) or % effect at 10 µM ([3]; β-arrestin recruitment): 82±9%
CCCCCCC(C)(C)c1cc(OC)c(C2=C[C@H]3CC[C@]2(CO)C3(C)C)c(OC)c1 [HU910]	33.1%	53.1 µM	> 100 µM	-25%	6.14±0.13	< 5	62%	1%	< 25%	GPR55 Emax ± SEM (%) or % effect at 10 µM ([3]; β-arrestin recruitment): -10 ± 3%
CCCC(C)(C)c1ccc2c(c1)OC(C)(C)[C@@H]1CC=C(C)C[C@@H]21 [JWH133]	76.8% and 77 ± 4% and 76.8±3.8%	8.5 ± 2.3 µM	20 µM	2%	–	< 5	-26%	-5%	–	pKi ± SEM mCB1R [1]: 6.09 ± 0.13; GPR55 Emax ± SEM (%) or % effect at 10 µM ([3]; β-arrestin recruitment): -2 ± 3%
CN1CCCCC1Cn1cc(C(=O)c2cc([N+](=O)[O-])ccc2I)c2ccccc21 (racemic) [(rac)-AM1241]	–	–	–	–	–	–	–	–	–	pKi ± SEM mCB1R [1]: 5.91 ± 0.16
CN1CCCC[C@H]1Cn1cc(C(=O)c2cc([N+](=O)[O-])ccc2I)c2ccccc21 [(S)-AM1241]	47.5%	5.8 µM	40.9 µM	2%	6.48 ± 0.08	–	42%	75%	< 25%	–
SR144528	43.8%	–	–	-13%	–	–	72%	-1%	–	–
Cc1ccc2c(c1)Cc1c(C(=O)NN3CCCCC3)nn(-c3ccc(Cl)cc3Cl)c1-2 [Gp-1a]	83.6% and 84 ± 1%	2.1 µM	10.4 µM	-1%	6.37 ± 0.08	< 5	95%	11%	< 50% and 30–40%	–
CCCCC/C=C\C/C=C\C/C=C\C/C=C\CCCC(=O)OC(CO)CO [2-AG, 2-arachidonoyl glycerol]	–	–	–	–	–	–	–	–	–	Ki ([1]; mouse brain membranes, read-out: pKi ± SEM mCB1R (converted)): 0.102 µM
CN1CCCC[C@@H]1Cn1cc(C(=O)c2cc([N+](=O)[O-])ccc2I)c2ccccc21 [(R)-AM1241]	19.8%	19.5 µM	> 50 µM	–	6.36 ± 0.13	–	–	–	< 25%	–
Cc1c(C(=O)c2cccc3ccccc23)c2cccc3c2n1[C@H](CN1CCOCC1)CO3 [WIN55212-2]	72.3% and 72 ± 1%	2.3 µM	6.4 ± 0.6 µM	-3%	–	< 5	84%	15%	< 25%	–
CCCCC/C=C\C/C=C\C/C=C\C/C=C\CCCC(=O)NCCO [Anandamide, N-arachidonoylethanolamine]	–	–	–	–	–	–	–	–	–	EC50 [3, 8]: > 10 µM
COc1ccc(C(=O)c2c(C)n(CCN3CCOCC3)c3cc(I)ccc23)cc1 [AM630]	118.0% and 118±2%	1.9 µM	3.7 ± 0.5 µM	9%	5.6 ± 0.298	< 5	76%	47%	–	–
Cc1c(C(=O)NN2CCCCC2)nn(-c2ccc(Cl)cc2Cl)c1-c1ccc(Cl)cc1 [SR141716A]	67.3% and 67 ± 1%	1.9 µM	12.5 µM	–	–	–	–	–	–	inhibition at 5 µM ([2]; 5 µM, U937 cell homogenate): < 25%
CCCCCCC(C)(C)c1ccc([C@@H]2C[C@H](O)CC[C@H]2CCCO)c(O)c1 [CP55940]	–	–	–	1%	–	–	–	–	–	Ki [1]: 0.00158 µM; EC50 [3, 8]: > 10 µM; inhibition at 10 µM ([5]; 10 µM): 98%; inhibition at 10 µM ([6]; 10 µM): 57%
